From paper PMC4795541, “A Rapid and Quantitative Flow Cytometry Method for the Analysis of Membrane Disruptive Antimicrobial Activity” (PLoS ONE, 2016)
Where two headings read alike, the source gives them in different places. Marks after values point to notes of the source that are not given here. Where no end group is shown, it is not given here.

Legend:
[1] = tested on: S. aureus (MRSA) ATCC 43300
Description: (§1) The bacterial strains; Fusobacterium nucleatum ATCC 25586, Streptococcus mutans Ingbritt, Staphylococcus aureus (MSSA) ATCC 29213; Staphylococcus aureus (MRSA) ATCC 43300; Enterococcus faecalis ATCC 29212; Enterobacter aerogenes ATCC 13048; Pseudomonas aeruginosa strain PAO1-LAC, ATCC 47085; Klebsiella pneumoniae ATCC 13883; Acinetobacter baumannii strain 2208, ATCC 19606; Escherichia coli ATCC 25922 lyophilised or glycerol stocks were obtained from the culture collection of the Oral Health Cooperative Research Centre, The Melbourne Dental School, University of Melbourne, Australia. These strains were selected for this study as they are widely used in antimicrobial studies and are considered to be important pathogens and major targets for antibiotic resistant studies. Bacteria were grown aerobically and maintained by passage at ambient temperature (E. coli, K. pneumoniae, A. baumannii and S. aureus strains) or at 37°C (P. aeruginosa, E. faecalis and E. aerogenes) on horse blood agar (10% v/v defibrinated horse blood, 4.4% w/v Oxoid Blood Agar Base No. 2). S. mutans and F. nucleatum were grown anaerobically (MK3 anaerobic workstation, Don Whitley Scientific Limited, England) and maintained by passage at 37°C on Todd Hewitt agar (3.6% w/v Oxoid Todd-Hewitt Broth, 1.5% w/v sucrose, 1.5% w/v BactoTM Agar, 0.8% w/v Oxoid Yeast Extract) or horse blood agar, respectively. For the antimicrobial peptide assays a 20 mL starter culture was produced by taking single colonies from blood or Todd Hewitt agar plates, respectively, to inoculate either: Luria Broth (LB; 1% w/v BactoTM Tryptone, 1% w/v NaCl, 0.5% w/v Oxoid Yeast Extract, pH 7.5, Thermo Scientific Pty, Ltd, Sydney, Australia) for bacteria; E. coli, K. pneumoniae, P. aeruginosa, A. baumannii, E. faecalis, E. aerogenes and S. aureus which were grown aerobically at 37°C, or Todd Hewitt broth (3.6% w/v Oxoid Todd-Hewitt Broth, 1.5% w/v sucrose, 0.8% w/v Oxoid Yeast 9 Extract) for S. mutans, or Brain Heart Infusion broth (BHI; 3.7% w/v Oxoid BHI, 0.05% w/v L-cysteine) for F. nucleatum which were both grown anaerobically at 37°C. After overnight incubation, 0.5–2.0 mL of the starter culture was used to inoculate the appropriate fresh broth (200 mL) and growth monitored at 650 nm using a spectrophotometer (model 275E; Perkin-Elmer, Sydney, Australia) with culture purity checked by microscopic examination and culture. Bacteria were harvested during late exponential growth phase and viability and bacteria/mL determined using a BacLight viability kit (Invitrogen, Sydney, Australia) and a Quanta SC-MPL flow cytometer (Beckman coulter Pty, Ltd, Sydney, Australia).
(§2) Antibacterial assays were undertaken to determinate the minimum inhibitory concentration (MIC), minimum bactericidal concentration (MBC) and minimum membrane disruptive concentration (MDC) of each of the antimicrobial peptides (AMP) and AMP analogues (S1 Table). For each bacterim a stock solution (2.5 × 10^6 cells/mL) in the respective media was made and an aliquot incubated with AMPs within 15 minutes from viable cell count and stock preparation. All AMPs were dissolved in DMSO and a 500 μM stock solution prepared by adding the respective media and serial dilutions (250–0.244 μM) of the AMP in media (100 μL/well) made just prior addition of bacteria. […] One hundred microliter aliquots of the bacterial stock solution (2.5 × 10^5 cells/well) were added to the AMP serial dilutions and incubated at 37°C for 90 min. Assay preparation and incubations were conducted in aerobic or anaerobic conditions dependent on the bacteria. Bacteria were also incubated in the absence of AMP to serve as a growth control for the assay. After the 90 minute incubation period the antimicrobial activity (MIC, MBC and MDC) was determined as follows;
(§3) For MIC the CLSI broth microdilution assay was followed as we have previously described.

K. pneumoniae ATCC 13883 [2] = tested on: K. pneumoniae ATCC 13883
Description: as §1, §2, §3

[3] = tested on: A. baumannii strain 2208, ATCC 19606
Description: as §1, §2, §3

E. coli ATCC 25922 [4] = tested on: E. coli ATCC 25922
Description: as §1, §2, §3

[5] = tested on: S. aureus (MSSA) ATCC 29213
Description: as §1, §2, §3

E. faecalis ATCC 29212 [6] = tested on: E. faecalis ATCC 29212
Description: as §1, §2, §3

[7] = tested on: P. aeruginosa strain PAO1-LAC, ATCC 47085
Description: as §1, §2, §3

E. aerogenes ATCC 13048 [8] = tested on: E. aerogenes ATCC 13048
Description: as §1, §2, §3

[9] = tested on: S. aureus (MRSA) ATCC 43300; remark: listed apart in the source
Description: as §1, §2
(§4) For determination of MBC, the CLSI protocol was followed, with the modifications being that due to the rapid action of the AMPs the assay incubation time was shortened from 16–20 hours to 90 minutes.

K. pneumoniae ATCC 13883 [10] = tested on: K. pneumoniae ATCC 13883; remark: listed apart in the source
Description: as §1, §2, §4

[11] = tested on: A. baumannii strain 2208, ATCC 19606; remark: listed apart in the source
Description: as §1, §2, §4

E. coli ATCC 25922 [12] = tested on: E. coli ATCC 25922; remark: listed apart in the source
Description: as §1, §2, §4

[13] = tested on: S. aureus (MSSA) ATCC 29213; remark: listed apart in the source
Description: as §1, §2, §4

E. faecalis ATCC 29212 [14] = tested on: E. faecalis ATCC 29212; remark: listed apart in the source
Description: as §1, §2, §4

[15] = tested on: P. aeruginosa strain PAO1-LAC, ATCC 47085; remark: listed apart in the source
Description: as §1, §2, §4

E. aerogenes ATCC 13048 [16] = tested on: E. aerogenes ATCC 13048; remark: listed apart in the source
Description: as §1, §2, §4

F. nucleatum ATCC 25586 [17] = conditions: ATCC 25586, 24 h
Description: as §1, §2, §3

S. mutans Ingbritt [18] = conditions: Ingbritt, 24 h
Description: as §1, §2, §3

F. nucleatum ATCC 25586 [19] = conditions: ATCC 25586
Description: as §1, §2, §4

S. mutans Ingbritt [20] = conditions: Ingbritt
Description: as §1, §2, §4

[21] = S. aureus (MRSA) ATCC 43300, 90 min incubation, average of 3 assays ± SD
[22] = K. pneumoniae ATCC 13883, 90 min incubation, average of 3 assays ± SD
[23] = A. baumannii strain 2208, ATCC 19606, 90 min incubation, average of 3 assays ± SD
[24] = E. coli ATCC 25922, 90 min incubation, average of 3 assays ± SD
[25] = S. aureus (MSSA) ATCC 29213, 90 min incubation, average of 3 assays ± SD
[26] = E. faecalis ATCC 29212, 90 min incubation, average of 3 assays ± SD
[27] = P. aeruginosa PAO1-LAC, ATCC 47085, 90 min incubation, average of 3 assays ± SD
[28] = E. aerogenes ATCC 13048, 90 min incubation, average of 3 assays ± SD

GLLSVLGSVAKHVLPHVVPVIAEHL-NH2 [Caerin 1.1]
MIC [1, 21]: 4.9±0.4^e μM | MIC (K. pneumoniae ATCC 13883 [2]; [22]): 14.6 ± 5.1 µM | MIC [3, 23]: 3.1 ± 0.4 µM | MIC (E. coli ATCC 25922 [4]; [24]): 8.45±0.2^e μM | MIC [5, 25]: 5.5±0.2^e μM | MIC (E. faecalis ATCC 29212 [6]; [26]): 27.1 ± 15.0 µM | MIC [7, 27]: 39.3 ± 21.4 µM | MIC (E. aerogenes ATCC 13048 [8]; [28]): 40.0 ± 8.2 µM | MBC [9, 21]: 13.9 ± 2.4 µM | MBC (K. pneumoniae ATCC 13883 [10]; [22]): 20.0 ± 7.1 µM | MBC [11, 23]: 3.0 ± 1.0 µM | MBC (E. coli ATCC 25922 [12]; [24]): 15.6 ± 0.4 µM | MBC [13, 25]: 9.9 ± 2.3 µM | MBC (E. faecalis ATCC 29212 [14]; [26]): 17.5 ± 10.6 µM | MBC [15, 27]: 51.4 ± 27.1 µM | MBC (E. aerogenes ATCC 13048 [16]; [28]): 51.1 ± 6.3 µM

KNLRRIIRKIIHIIKKYG [Ovispirin]
MIC ([1]; ATCC 43300, 24 h): >250 µM | MIC (K. pneumoniae ATCC 13883 [2]; ATCC 13883, 24 h): 7.7±0.1^e μM | MIC ([3]; ATCC 19606, 24 h): 2.6 ± 1.1 µM | MIC (E. coli ATCC 25922 [4]; ATCC 25922, 24 h): 9.6 ± 3.9 µM | MIC (F. nucleatum ATCC 25586 [17]): 4.2 ± 2.9 µM | MIC ([5]; ATCC 29213, 24 h): 138.5 ± 24.5 µM | MIC (E. faecalis ATCC 29212 [6]; ATCC 29212, 24 h): 78.8 ± 40.7 µM | MIC (S. mutans Ingbritt [18]): 16.5 ± 1.7 µM | MIC ([7]; PAO1, 24 h): 90.6 ± 7.5 µM | MIC (E. aerogenes ATCC 13048 [8]; ATCC 13048, 24 h): 45.9±13.8^e μM | MBC ([9]; ATCC 43300): >250 µM | MBC (K. pneumoniae ATCC 13883 [10]; ATCC 13883): 21.7 ± 3.7 µM | MBC ([11]; ATCC 19606): 2.0 ± 1.0 µM | MBC (E. coli ATCC 25922 [12]; ATCC 25922): 8.5 ± 0.7 µM | MBC (F. nucleatum ATCC 25586 [19]): 4.7 ± 3.5 µM | MBC ([13]; ATCC 29213): 139.7 ± 25.8 µM | MBC (E. faecalis ATCC 29212 [14]; ATCC 29212): 72.4 ± 13.7 µM | MBC (S. mutans Ingbritt [20]): 11.3 ± 5.3 µM | MBC ([15]; PAO1): 95.9 ± 9.8 µM | MBC (E. aerogenes ATCC 13048 [16]; ATCC 13048): 135.2 ± 26.3 µM
